Experimental data: patent US20240207421A1, “NERVE TARGETING PEPTIDES AND METHODS OF USE” (ALUME BIOSCIENCES, INC., priority 2020, published 2024)

Assays:
[1] = system: excised human nerve tissue (or nerve extracts); assay: Phage display library screening (Example 2), NEB tissue-binding peptides: nerve tissue and nerve extracts versus muscle; conditions: unique sequence count, peptides not binding muscle extracts; for Count Excised Nerve: tissue target: excised nerve; for Count Nerve Extract: tissue target: nerve extract; for Count Neuron: tissue target: neuron
Experimental: Phage display library screens were used to identify peptides that bind to target proteins (including specific laminin trimers) that are expressed in human nerves, as described in Table 3. These screens were also carried out to identify peptides that could bind selectively to nerves versus muscle. Such peptides could therefore be useful for systemic in-vivo labeling of nerves during fluorescence assisted surgery. Specifically, m 13 phage libraries expressing 7 or 12 random amino acid peptides, or a cyclic peptide CX7C, on the N-terminus of the minor coat protein pIII (New England Biolabs; NEB) were processed through multiple rounds of selection for binding to target proteins expressed in nerves, or to excised human nerves, nerve extracts, or muscle, as described further below.
To identify peptides selective for nerves versus muscle, phage from the same libraries used for specific target proteins were used to screen against excised human nerve tissue (or nerve extracts) and human muscle tissue.
Excised Nerve Tissue: Phage were processed through multiple cycles of selection, with representative phage being isolated and sequenced after each selection cycle. Specifically, for selection using human nerve tissue, a sample of […] tissue (2 mm by 2 mm) was washed prior to mixing and incubation with a phage library. After incubation, the mixture (containing mostly intact nerves with phage particles that had variable affinity for nerves) was centrifuged and the nerve pellet washed multiple times with PBS to remove phage with little or no affinity for nerve tissue. The pellet was homogenized and plated for titering and reamplification. Phage that were bound at each round were sequenced. NextGen sequencing of pools after 2, 3 and 4 rounds of selection were used to isolate candidate sequences that were further analyzed using bioinformatics.
Nerve Extracts: Phage libraries were incubated for up to 24 hours at 4° C. in 96 well plates that had been coated with a human nerve extract. Plates were then washed with PBS and phage were eluted using 0.2M glycine pH 2.0. Phage supernatants where then neutralized with Tris pH 9.0 prior to plating on TG1 bacteria and LB agar plates. Colonies were counted to determine titer followed by DNA preparation of pools of phage and NextGen sequencing. After rounds of selection, phage were pooled and amplified for iterative selection. Phage that eluted by 0.2M glycine pH 2.0 (the nerve binders) at each round were sequenced. NextGen sequencing of pools after 2, 3 and 4 rounds of selection were used to isolate candidate sequences that were further analyzed using bioinformatics.
Muscle Tissue: Phage were processed through multiple cycles of selection, with representative phage being isolated and sequenced after each selection cycle. Specifically, for selection using human skeletal muscle tissue, a sample of skeletal muscle tissue (2 mm by 2 mm) was washed prior to mixing and incubation with a phage library. After incubation, the mixture (containing mostly intact muscle with phage particles that had variable affinity for muscle) was centrifuged and the muscle pellet washed multiple times with PBS to remove phage with little or no affinity for muscle tissue. The pellet was then homogenized and plated for titering and reamplification. Phage that were bound at each round were sequenced. NextGen sequencing of pools after 2, 3 and 4 rounds of selection were used to isolate candidate sequences that were further analyzed using bioinformatics.
For all NEB sequence datasets, a python script was used to translate, trim, and filter the peptide sequences (see details above). A python script was used to group peptides from different assays according to tissue target (muscle, nerve, neuron, or nerve extract) and combine the unique sequence counts for each peptide. […]

Laminin 421/521 = assay: phage display, NGS count

| Molecule | Count Excised Nerve [1] | Count Nerve Extract [1] | Count Neuron [1] | Count (Laminin 421/521) |
| --- | --- | --- | --- | --- |
| GLTIMSSRHSLQ | 12 | 18 | 6 | – |
| EPWQSRDKVIEE | 8 | 16 | 8 | – |
| SLGSSFVQGGEL | 12 | 19 | 7 | – |
| SPMANVWFNRLS | 7 | 17 | 10 | – |
| VNYQTPWNKHWY | 10 | 21 | 11 | – |
| KTTSMTALTMGL | 9 | 21 | 12 | – |
| DELVGGAPWYKS | 20 | 27 | 7 | – |
| DRGLTILTDDLR | 27 | 34 | 7 | – |
| TSAHHDRTLAGS | 6 | 12 | 6 | – |
| EIIVMSGSNVTN | 9 | 15 | 6 | – |
| MLRHVDLTEPNA | 7 | 13 | 6 | – |
| HGIVFSKRPFSN | 12 | 23 | 11 | – |
| EMVPMKFLMMAK | 8 | 14 | 6 | – |
| GLWDGKGRIVEV | 9 | 16 | 7 | – |
| GLLREPDELMFL | 18 | 27 | 9 | – |
| YSANSNPKKSLM | 11 | 17 | 6 | – |
| HSGAYTIQASYK | 9 | 15 | 6 | – |
| WDVAWLERRALH | 23 | 43 | 20 | – |
| GTVSYMVKMDNN | 9 | 16 | 7 | – |
| VERLNWPKRMQS | 27 | 43 | 16 | – |
| WVGPDIIAQMRI | 8 | 16 | 8 | – |
| GMRTGDDSPKYP | 14 | 21 | 7 | – |

| Molecule | Count Excised Nerve [1] | Count Nerve Extract [1] | Count Neuron [1] | Count (Laminin 421/521) |
| --- | --- | --- | --- | --- |
| VESGHAYSVSSW | 14 | 20 | 6 | – |
| TEWMVRASSIGE | 6 | 14 | 8 | – |
| SLQLWNSEKVTT | 10 | 16 | 6 | – |
| GWQMFPPMQNTR | 10 | 50 | 40 | – |
| YAWDTVASRNYK | 14 | 20 | 6 | – |
| NRIGHGTATGTL | 22 | 28 | 6 | – |
| FDPLSRNVPHKT | 16 | 22 | 6 | – |
| WEKHTGPLSRYL | 6 | 19 | 13 | – |
| SGWHLVMSMSIG | 6 | 12 | 6 | – |
| CKSPIKGTC | – | – | – | 27 |
| CLQKNHKFC | – | – | – | 27 |
| CVLKCEDQKYRG | – | – | – | 27 |
| DRMYSTVPAEGL | – | – | – | 27 |
| EAVSTQI | – | – | – | 27 |
| GINLRALDLHAN | – | – | – | 27 |
| HQSVTGVRSHFH | – | – | – | 27 |
| SVVGWAAPRTAQ | – | – | – | 27 |
| TILKPAAQGFAD | – | – | – | 27 |
| TSAVSLR | – | – | – | 27 |
| TTLWLDRDEALK | – | – | – | 27 |
| VIADQSKSAVAV | – | – | – | 27 |
| AQNLRVHAWASL | – | – | – | 28 |

| Molecule | Count Excised Nerve [1] | Count Nerve Extract [1] | Count Neuron [1] | Count (Laminin 421/521) |
| --- | --- | --- | --- | --- |
| CPMHQSKTC | – | – | – | 28 |
| CTDGRNFVC | – | – | – | 28 |
| CTGETLLTC | – | – | – | 28 |
| CTSSSHQTC | – | – | – | 28 |
| ETGGLAYGSGQK | – | – | – | 28 |
| GIVPSRHTTGLG | – | – | – | 28 |
| GWTSDLSRNVRG | – | – | – | 28 |
| HTQIHRL | – | – | – | 28 |
| KFADTKLTSLRY | – | – | – | 28 |
| QLQHVHL | – | – | – | 28 |
| QPTPSQIKFTRT | – | – | – | 28 |
| RALDRYLPWSPH | – | – | – | 28 |
| SLPYAASLNSVE | – | – | – | 28 |
| STNVQRA | – | – | – | 28 |
| SVLSTGTANQRH | – | – | – | 28 |
| SVQTPMWRSLVG | – | – | – | 28 |
| SWHFTGTPFMNR | – | – | – | 28 |
| SYTATWSEMSRS | – | – | – | 28 |
| TALSHRHEAMRW | – | – | – | 28 |
| TKGIAPK | – | – | – | 28 |
| TVARSTAQERSI | – | – | – | 28 |
| AVRPLGLPDNHR | – | – | – | 29 |
